≈ marks a conversion by molar mass, not a printed value. One block for each compound: values may come before it.
Experiments:
Assay in all cases: In vitro antibacterial evaluation: minimum inhibitory concentration (MIC), broth dilution method
Type in all cases: cell-based
Enterococcus sp. = details: for MIC Enterococcus faecalis (ATCC 29212): strain ATCC 29212; for MIC Enterococcus faecium (GC 2243): strain GC 2243; for MIC Enterococcus faecalis (GC 4552): strain GC 4552; for MIC Enterococcus faecalis (GC 4553): strain GC 4553; for MIC Enterococcus faecalis (GC 4554): strain GC 4554; for MIC Enterococcus faecium (GC 4556): strain GC 4556; for MIC Enterococcus faecium (GC 4557): strain GC 4557; for MIC Enterococcus avium (GC 4558): strain GC 4558; for MIC Enterococcus faecalis (GC 6189): strain GC 6189
Experimental: (§1) The minimum inhibitory concentration (MIC), the lowest concentration of the antibiotic which inhibits growth of the test organism, is determined by the broth dilution method using Muller-Hinton II […] (Baltimore Biological Laboratories) following the recommendations of the National Committee for Clinical Laboratory Standards [Methods for dilution antimicrobial susceptibility tests for bacteria that grow aerobically, approved standard M7-A2, National Committee for Clinical Laboratory Standards, Villanova, Pa].
(§2) An inoculum level of 5×10^5 CFU/mL, and a range of antibiotic concentrations (64-0.06 μg/mL) is used. […] The test organisms include a spectrum of Gram-positive bacteria comprised of Staphylococcus sp., Streptococcus sp. and Enterococcus sp. These organisms include recent clinical isolates that are resistant to methicillin, penicillin and/or vancomycin.

Escherichia coli = details: for MIC Escherichia coli (ATCC 25922): strain ATCC 25922; for MIC Escherichia coli (GC 4559): strain GC 4559; for MIC Escherichia coli (GC 4560): strain GC 4560
Experimental: as §1, §2

Staphylococcus sp. = details: for MIC Staphylococcus aureus (ATCC 29213) / MIC Staphylococcus aureus (GC 1131) / MIC Staphylococcus aureus (GC 3051) / MIC Staphylococcus aureus (GC 3053) / MIC Staphylococcus aureus (GC 4541) / MIC Staphylococcus aureus (GC 4542) / MIC Staphylococcus aureus (GC 4544) / MIC Staphylococcus aureus (GC 4545) / MIC Staphylococcus aureus-SMITH (GC 4543): 18 hours at 35° C.
Experimental: as §1, §2

Streptococcus sp. = test system: Streptococcus sp.
Experimental: as §1, §2

[1] = Enterococcus faecalis (GC 2242), broth dilution, 18 hours at 35° C.
[2] = Enterococcus faecalis (GC 2691), broth dilution, 18 hours at 35° C.
[3] = Enterococcus faecalis (GC 3059), broth dilution, 18 hours at 35° C.
[4] = strain SMITH GC 4543, broth dilution
[5] = Streptococcus agalactiae (GC 4564), broth dilution, 18 hours at 35° C.
[6] = Streptococcus pneumoniae (ATCC 6301), broth dilution, 18 hours at 35° C.
[7] = Streptococcus pneumoniae (GC 1894), broth dilution, 18 hours at 35° C.
[8] = Streptococcus pneumoniae (GC 4565), broth dilution, 18 hours at 35° C.
[9] = Streptococcus pyogenes (GC 4563), broth dilution, 18 hours at 35° C.

MIC Enterococcus faecalis (GC 2242) (Enterococcus sp.; [1]): 8 µg/mL (≈ 5.29 µM) | MIC Enterococcus faecalis (GC 2691) (Enterococcus sp.; [2]): 8 µg/mL (≈ 5.29 µM) | MIC Enterococcus faecalis (GC 3059) (Enterococcus sp.; [3]): 8 µg/mL (≈ 5.29 µM) | MIC Enterococcus faecalis (ATCC 29212) (Enterococcus sp.): 8 µg/mL (≈ 5.29 µM) | MIC Enterococcus faecalis (GC 2242) (Enterococcus sp.; strain GC 2242): 8 µg/mL (≈ 5.29 µM) | MIC Enterococcus faecium (GC 2243) (Enterococcus sp.): 4 µg/mL (≈ 2.65 µM) | MIC Enterococcus faecalis (GC 2691) (Enterococcus sp.; strain GC 2691): 8 µg/mL (≈ 5.29 µM) | MIC Enterococcus faecalis (GC 3059) (Enterococcus sp.; strain GC 3059): 8 µg/mL (≈ 5.29 µM) | MIC Enterococcus faecalis (GC 4552) (Enterococcus sp.): 8 µg/mL (≈ 5.29 µM) | MIC Enterococcus faecalis (GC 4553) (Enterococcus sp.): 8 µg/mL (≈ 5.29 µM) | MIC Enterococcus faecalis (GC 4554) (Enterococcus sp.): 16 µg/mL (≈ 10.6 µM) | MIC Enterococcus faecium (GC 4556) (Enterococcus sp.): 8 µg/mL (≈ 5.29 µM) | MIC Enterococcus faecium (GC 4557) (Enterococcus sp.): 1 µg/mL (≈ 0.662 µM) | MIC Enterococcus avium (GC 4558) (Enterococcus sp.): 8 µg/mL (≈ 5.29 µM) | MIC Enterococcus faecalis (GC 6189) (Enterococcus sp.): 8 µg/mL (≈ 5.29 µM) | MIC Escherichia coli (ATCC 25922) (Escherichia coli): >64 µg/mL | MIC Escherichia coli (GC 4559) (Escherichia coli): 64 µg/mL (≈ 42.3 µM) | MIC Escherichia coli (GC 4560) (Escherichia coli): 4 µg/mL (≈ 2.65 µM) | MIC Staphylococcus aureus (ATCC 29213) (Staphylococcus sp.; broth dilution): 8 µg/mL (≈ 5.29 µM) | MIC Staphylococcus aureus (GC 1131) (Staphylococcus sp.; broth dilution): 8 µg/mL (≈ 5.29 µM) | MIC Staphylococcus aureus (GC 3051) (Staphylococcus sp.; broth dilution): 8 µg/mL (≈ 5.29 µM) | MIC Staphylococcus aureus (GC 3053) (Staphylococcus sp.; broth dilution): 8 µg/mL (≈ 5.29 µM) | MIC Staphylococcus aureus (GC 4541) (Staphylococcus sp.; broth dilution): 4 µg/mL (≈ 2.65 µM) | MIC Staphylococcus aureus (GC 4542) (Staphylococcus sp.; broth dilution): 8 µg/mL (≈ 5.29 µM) | MIC Staphylococcus aureus (GC 4544) (Staphylococcus sp.; broth dilution): 8 µg/mL (≈ 5.29 µM) | MIC Staphylococcus aureus (GC 4545) (Staphylococcus sp.; broth dilution): 8 µg/mL (≈ 5.29 µM) | MIC Staphylococcus aureus-SMITH (GC 4543) (Staphylococcus sp.; [4]): 4 µg/mL (≈ 2.65 µM) | MIC Streptococcus agalactiae (GC 4564) (Streptococcus sp.; [5]): 1 µg/mL (≈ 0.662 µM) | MIC Streptococcus pneumoniae (ATCC 6301) (Streptococcus sp.; [6]): 1 µg/mL (≈ 0.662 µM) | MIC Streptococcus pneumoniae (GC 1894) (Streptococcus sp.; [7]): 0.12 µg/mL (≈ 0.0794 µM) | MIC Streptococcus pneumoniae (GC 4565) (Streptococcus sp.; [8]): 1 µg/mL (≈ 0.662 µM) | MIC Streptococcus pyogenes (GC 4563) (Streptococcus sp.; [9]): 0.5 µg/mL (≈ 0.331 µM) | MIC Streptococcus pneumoniae (ATCC 6301) (Streptococcus sp.; strain ATCC 6301): 1 µg/mL (≈ 0.662 µM) | MIC Streptococcus pneumoniae (GC 1894) (Streptococcus sp.; strain GC 1894): 0.12 µg/mL (≈ 0.0794 µM) | MIC Streptococcus pyogenes (GC 4563) (Streptococcus sp.; strain GC 4563): 0.5 µg/mL (≈ 0.331 µM) | MIC Streptococcus agalactiae (GC 4564) (Streptococcus sp.; strain GC 4564): 1 µg/mL (≈ 0.662 µM) | MIC Streptococcus pneumoniae (GC 4565) (Streptococcus sp.; strain GC 4565): 1 µg/mL (≈ 0.662 µM)
Compound: CCCCCCN=C1NCC(C(O)C2NC(=O)C(C(O)C3CNC(=N)N3)NC(=O)C(Cc3ccc(OC4OC(CO)C(OC5OC6COC7(OC6C(O)C5O)C5CC6CC(C5)CC7C6)C(O)C4O)cc3)NC(=O)C(C(C)c3ccccc3)NC(=O)CNC(=O)C(CO)NC2=O)N1C1OC(CO)C(O)C(O)C1O (centres unmarked) [Example 84]

MIC Enterococcus faecalis (GC 2242) (Enterococcus sp.; [1]): >64 µg/mL | MIC Enterococcus faecalis (GC 2691) (Enterococcus sp.; [2]): >64 µg/mL | MIC Enterococcus faecalis (GC 3059) (Enterococcus sp.; [3]): >64 µg/mL | MIC Enterococcus faecalis (ATCC 29212) (Enterococcus sp.): >64 µg/mL | MIC Enterococcus faecalis (GC 2242) (Enterococcus sp.; strain GC 2242): >64 µg/mL | MIC Enterococcus faecium (GC 2243) (Enterococcus sp.): >64 µg/mL | MIC Enterococcus faecalis (GC 2691) (Enterococcus sp.; strain GC 2691): >64 µg/mL | MIC Enterococcus faecalis (GC 3059) (Enterococcus sp.; strain GC 3059): >64 µg/mL | MIC Enterococcus faecalis (GC 4552) (Enterococcus sp.): >64 µg/mL | MIC Enterococcus faecalis (GC 4553) (Enterococcus sp.): >64 µg/mL | MIC Enterococcus faecalis (GC 4554) (Enterococcus sp.): >64 µg/mL | MIC Enterococcus faecium (GC 4556) (Enterococcus sp.): >64 µg/mL | MIC Enterococcus faecium (GC 4557) (Enterococcus sp.): >64 µg/mL | MIC Enterococcus avium (GC 4558) (Enterococcus sp.): >64 µg/mL | MIC Enterococcus faecalis (GC 6189) (Enterococcus sp.): >64 µg/mL | MIC Escherichia coli (ATCC 25922) (Escherichia coli): >64 µg/mL | MIC Escherichia coli (GC 4559) (Escherichia coli): >64 µg/mL | MIC Escherichia coli (GC 4560) (Escherichia coli): 64 µg/mL (≈ 41 µM) | MIC Staphylococcus aureus (ATCC 29213) (Staphylococcus sp.; broth dilution): >64 µg/mL | MIC Staphylococcus aureus (GC 1131) (Staphylococcus sp.; broth dilution): >64 µg/mL | MIC Staphylococcus aureus (GC 3051) (Staphylococcus sp.; broth dilution): >64 µg/mL | MIC Staphylococcus aureus (GC 3053) (Staphylococcus sp.; broth dilution): >64 µg/mL | MIC Staphylococcus aureus (GC 4541) (Staphylococcus sp.; broth dilution): >64 µg/mL | MIC Staphylococcus aureus (GC 4542) (Staphylococcus sp.; broth dilution): >64 µg/mL | MIC Staphylococcus aureus (GC 4544) (Staphylococcus sp.; broth dilution): >64 µg/mL | MIC Staphylococcus aureus (GC 4545) (Staphylococcus sp.; broth dilution): >64 µg/mL | MIC Staphylococcus aureus-SMITH (GC 4543) (Staphylococcus sp.; strain GC 4543): >64 µg/mL | MIC Coagulase Negative Staphylococcus (GC 4547) (Staphylococcus sp.; strain GC 4547): >64 µg/mL | MIC Coagulase Negative Staphylococcus (GC 4548) (Staphylococcus sp.; strain GC 4548): >64 µg/mL | MIC Coagulase Negative Staphylococcus (GC 4549) (Staphylococcus sp.; strain GC 4549): >64 µg/mL | MIC Coagulase Negative Staphylococcus (GC 4551) (Staphylococcus sp.; strain GC 4551): >64 µg/mL | MIC Staphylococcus aureus-SMITH (GC 4543) (Staphylococcus sp.; [4]): >64 µg/mL | MIC Streptococcus agalactiae (GC 4564) (Streptococcus sp.; [5]): >64 µg/mL | MIC Streptococcus pneumoniae (ATCC 6301) (Streptococcus sp.; [6]): >64 µg/mL | MIC Streptococcus pneumoniae (GC 1894) (Streptococcus sp.; [7]): >64 µg/mL | MIC Streptococcus pneumoniae (GC 4565) (Streptococcus sp.; [8]): >64 µg/mL | MIC Streptococcus pyogenes (GC 4563) (Streptococcus sp.; [9]): >64 µg/mL | MIC Streptococcus pneumoniae (ATCC 6301) (Streptococcus sp.; strain ATCC 6301): >64 µg/mL | MIC Streptococcus pneumoniae (GC 1894) (Streptococcus sp.; strain GC 1894): >64 µg/mL | MIC Streptococcus pyogenes (GC 4563) (Streptococcus sp.; strain GC 4563): >64 µg/mL | MIC Streptococcus agalactiae (GC 4564) (Streptococcus sp.; strain GC 4564): >64 µg/mL | MIC Streptococcus pneumoniae (GC 4565) (Streptococcus sp.; strain GC 4565): >64 µg/mL
Compound: CC(c1ccccc1)C1NC(=O)CNC(=O)C(CO)NC(=O)C(C(O)C2CN(c3nc4ccccc4s3)C(=N)N2C2OC(CO)C(O)C(O)C2O)NC(=O)C(C(O)C2CNC(=Nc3nc4ccccc4s3)N2)NC(=O)C(Cc2ccc(OC3OC(CO)C(OC4OC(CO)C(O)C(O)C4O)C(O)C3O)cc2)NC1=O (stereo not drawn) [Example 94, Cyclo[glycyl-β-methylphenylalanyl-O-(4-O-hexopyranosylhexopyranosyl)tyrosyl-3-[2-(1,3-benzothiazol-2-ylimino)imidazolidin-4-yl]seryl-3-[1-(1,3-benzo-thiazol-2-yl)-2-imino-3-hexonyranosylimidazolidin-4-yl]serylseryl]]
MIC Staphylococcus haemolyticus (GC 4546) (Staphylococcus sp.; strain GC 4546): >64 µg/mL
